Patent US20260242419A1, “A CYCLIC PEPTIDE FOR TRAPPING INTERLEUKIN-1 BETA” (Merck Sharp & Dohme LLC, priority 2023, published 2026)
Starred links: 1 amine or outer side, 2 acyl side, 3 side chain; linkers in the order of their positions; H or OH if unused. Non-standard residues stand in square brackets, D forms with d. Residues, ends and D or L forms follow the SMILES beside them. dPro(4R-(4-pyridylmethyl)) = O=C(O)[C@H]1C[C@@H](Cc2ccncc2)CN1; Trp(βS-Me,4-F) = C[C@@H](c1c[nH]c2cccc(F)c12)[C@H](N)C(=O)O; Bip(4'-COOH) = N[C@@H](Cc1ccc(-c2ccc(C(=O)O)cc2)cc1)C(=O)O; Trp(4-Cl) = N[C@@H](Cc1c[nH]c2cccc(Cl)c12)C(=O)O; X4 = O=C([C@H]1[C@@H](Cc2ccncc2)CCN1[*:1])[*:2]; Ala(pyrimidin-5-yl) = N[C@@H](Cc1cncnc1)C(=O)O; Phe(4-CONH2) = NC(=O)c1ccc(C[C@H](N)C(=O)O)cc1; Phe(4-COOH) = N[C@@H](Cc1ccc(C(=O)O)cc1)C(=O)O; Pro(cis-4-F) = O=C(O)[C@@H]1C[C@H](F)CN1; AEF = NCCOc1ccc(C[C@H](N)C(=O)O)cc1; Dap(CONH2) = NC(=O)NC[C@H](N)C(=O)O; hTyr = N[C@@H](CCc1ccc(O)cc1)C(=O)O; d(αMeD) = C[C@@](N)(CC(=O)O)C(=O)O; h4Pal = N[C@@H](CCc1ccncc1)C(=O)O; hPhe = N[C@@H](CCc1ccccc1)C(=O)O; 4Pal = N[C@@H](Cc1ccncc1)C(=O)O; d(αMeS) = C[C@@](N)(CO)C(=O)O; NMeDab = CN[C@@H](CCN)C(=O)O; Dab = NCC[C@H](N)C(=O)O; Aib = CC(C)(N)C(=O)O

These compounds were tested against T1, IL-1β (Homo sapiens, UniProt P01584) (assay: IL-6 assay in MRC5 cells: inhibition of IL-1β induced IL-6 secretion (AlphaLISA)). Settings: inhibition of IL-1β induced IL-6 secretion in MRC5 cells; read-out: MRC5 IC50.
T1 construct: purchased BioLegend 579404
Format: cell-based
In short: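 Compound was pre-incubated 1 h at ambient temperature with recombinant human IL-1β at 2λ EC80 before adding human lung fibroblast MRC5 cells (3000/well) in EMEM with 0.025% BSA. After overnight culture at 37 °C, 5% CO2, secreted IL-6 in conditioned medium was measured by AlphaLISA; IC50 from 4-parameter logistic fits.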

T1 sequence (P01584 117-269): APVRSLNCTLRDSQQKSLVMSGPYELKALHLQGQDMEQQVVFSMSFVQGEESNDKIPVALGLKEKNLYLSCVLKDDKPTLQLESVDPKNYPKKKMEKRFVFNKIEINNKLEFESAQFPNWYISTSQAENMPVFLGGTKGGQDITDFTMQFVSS

Row | IC50 | SMILES
1 | 0.018 nM | C[C@@H](c1c[nH]c2cccc(F)c12)[C@@H]1NC(=O)[C@@H]2C[C@H](F)CN2C(=O)CNC(=O)[C@H](Cc2ccc(C(=O)O)cc2)NC(=O)[C@H](Cc2ccncc2)NC(=O)[C@H](Cc2ccc(-c3ccc(C(=O)O)cc3)cc2)NC(=O)[C@H]2[C@@H](Cc3ccncc3)CCN2C(=O)CNC(=O)[C@H](CCN)NC(=O)[C@H](CCC(N)=O)NC(=O)[C@H](CCc2ccc(O)cc2)NC(=O)[C@@](C)(CC(=O)O)NC(=O)[C@H](Cc2c[nH]c3ccccc23)NC(=O)[C@H](CO)NC(=O)C(C)(C)NC1=O [Example 219] (cyclo([Bip(4'-COOH)][4Pal][Phe(4-COOH)]G[Pro(cis-4-F)][Trp(βS-Me,4-F)][Aib]SW[d(αMeD)][hTyr]Q[Dab]G[X4]))
2 | 0.02 nM | C[C@@H](c1c[nH]c2cccc(F)c12)[C@@H]1NC(=O)[C@@H]2C[C@H](F)CN2C(=O)CNC(=O)[C@H](Cc2ccc(C(=O)O)cc2)NC(=O)[C@H](Cc2ccncc2)NC(=O)[C@H](Cc2ccc(-c3ccc(C(=O)O)cc3)cc2)NC(=O)[C@H]2[C@@H](Cc3ccncc3)CCN2C(=O)CNC(=O)[C@H](CCN)NC(=O)[C@H](CCC(N)=O)NC(=O)[C@H](CCc2ccccc2)NC(=O)[C@@](C)(CC(=O)O)NC(=O)[C@H](Cc2c[nH]c3ccccc23)NC(=O)[C@H](CO)NC(=O)C(C)(C)NC1=O [Example 221] (cyclo([Bip(4'-COOH)][4Pal][Phe(4-COOH)]G[Pro(cis-4-F)][Trp(βS-Me,4-F)][Aib]SW[d(αMeD)][hPhe]Q[Dab]G[X4]))
3 | 0.02 nM | C[C@@H](c1c[nH]c2cccc(F)c12)[C@@H]1NC(=O)[C@@H]2C[C@H](F)CN2C(=O)CNC(=O)[C@H](Cc2ccc(C(=O)O)cc2)NC(=O)[C@H](Cc2ccncc2)NC(=O)[C@H](Cc2ccc(-c3ccc(C(=O)O)cc3)cc2)NC(=O)[C@H]2[C@@H](Cc3ccncc3)CCN2C(=O)CNC(=O)[C@H](CCN)NC(=O)[C@H](CCC(N)=O)NC(=O)[C@H](CCc2ccncc2)NC(=O)[C@@](C)(CC(=O)O)NC(=O)[C@H](Cc2c[nH]c3ccccc23)NC(=O)[C@H](CO)NC(=O)C(C)(C)NC1=O [Example 222] (cyclo([Bip(4'-COOH)][4Pal][Phe(4-COOH)]G[Pro(cis-4-F)][Trp(βS-Me,4-F)][Aib]SW[d(αMeD)][h4Pal]Q[Dab]G[X4]))
4 | 0.014 nM | CO[C@H](C)[C@@H]1NC(=O)[C@@](C)(CC(=O)O)NC(=O)[C@H](Cc2c[nH]c3ccccc23)NC(=O)[C@H](CO)NC(=O)C(C)(C)NC(=O)[C@H]([C@@H](C)c2c[nH]c3cccc(F)c23)NC(=O)[C@@H]2C[C@H](F)CN2C(=O)CNC(=O)[C@H](Cc2ccc(C(=O)O)cc2)NC(=O)[C@H](Cc2ccncc2)NC(=O)[C@H](Cc2ccc(-c3ccc(C(=O)O)cc3)cc2)NC(=O)[C@H]2[C@@H](Cc3ccncc3)CCN2C(=O)CNC(=O)[C@H](CCN)NC(=O)[C@H](CCC(N)=O)NC1=O [Example 227] (cyclo([Bip(4'-COOH)][4Pal][Phe(4-COOH)]G[Pro(cis-4-F)][Trp(βS-Me,4-F)][Aib]SW[d(αMeD)]T(Me)Q[Dab]G[X4]))

Further lines, the compound ahead of its results:

Row | SMILES | IC50
5 | CC(=O)NCCOc1ccc(C[C@@H]2NC(=O)[C@H]3C[C@@H](Cc4ccncc4)CN3C(=O)CNC(=O)[C@H](CCN)N(C)C(=O)[C@H](CCC(N)=O)NC(=O)[C@H](Cc3cncnc3)NC(=O)C(C)(C)NC(=O)[C@H](Cc3c[nH]c4ccccc34)NC(=O)[C@H](CO)NC(=O)C(C)(C)NC(=O)[C@H]([C@@H](C)c3c[nH]c4cccc(F)c34)NC(=O)[C@@H]3C[C@H](F)CN3C(=O)CNC(=O)[C@H](Cc3ccc(C(N)=O)cc3)NC(=O)[C@H](Cc3ccncc3)NC2=O)cc1 [Example 218] (cyclo([4Pal][Phe(4-CONH2)]G[Pro(cis-4-F)][Trp(βS-Me,4-F)][Aib]SW[Aib][Ala(pyrimidin-5-yl)]Q[NMeDab]G[dPro(4R-(4-pyridylmethyl))][AEF](Ac))) | 0.036 nM
6 | C[C@@H](c1c[nH]c2cccc(F)c12)[C@@H]1NC(=O)[C@@H]2C[C@H](F)CN2C(=O)CNC(=O)[C@H](Cc2ccc(C(=O)O)cc2)NC(=O)[C@H](Cc2ccncc2)NC(=O)[C@H](Cc2ccc(-c3ccc(C(=O)O)cc3)cc2)NC(=O)[C@H]2[C@@H](Cc3ccncc3)CCN2C(=O)CNC(=O)[C@H](CCN)NC(=O)[C@H](CCC(N)=O)NC(=O)[C@H](CCc2ccc(O)cc2)NC(=O)C(C)(C)NC(=O)[C@H](Cc2c[nH]c3ccccc23)NC(=O)[C@H](CO)NC(=O)C(C)(C)NC1=O [Example 220] (cyclo([Bip(4'-COOH)][4Pal][Phe(4-COOH)]G[Pro(cis-4-F)][Trp(βS-Me,4-F)][Aib]SW[Aib][hTyr]Q[Dab]G[X4])) | 0.039 nM
7 | C[C@@H](c1c[nH]c2cccc(F)c12)[C@@H]1NC(=O)[C@@H]2C[C@H](F)CN2C(=O)CNC(=O)[C@H](Cc2ccc(C(=O)O)cc2)NC(=O)[C@H](Cc2ccncc2)NC(=O)[C@H](Cc2ccc(-c3ccc(C(=O)O)cc3)cc2)NC(=O)[C@H]2[C@@H](Cc3ccncc3)CCN2C(=O)CNC(=O)[C@H](CNC(N)=O)NC(=O)[C@H](CCC(N)=O)NC(=O)[C@H](CCc2ccncc2)NC(=O)[C@@](C)(CC(=O)O)NC(=O)[C@H](Cc2c[nH]c3ccccc23)NC(=O)[C@H](CO)NC(=O)C(C)(C)NC1=O [Example 223] (cyclo([Bip(4'-COOH)][4Pal][Phe(4-COOH)]G[Pro(cis-4-F)][Trp(βS-Me,4-F)][Aib]SW[d(αMeD)][h4Pal]Q[Dap(CONH2)]G[X4])) | 0.027 nM
8 | COC[C@@]1(C)NC(=O)[C@H](Cc2c[nH]c3ccccc23)NC(=O)[C@H](CO)NC(=O)C(C)(C)NC(=O)[C@H]([C@@H](C)c2c[nH]c3cccc(F)c23)NC(=O)[C@@H]2C[C@H](F)CN2C(=O)CNC(=O)[C@H](Cc2ccc(C(=O)O)cc2)NC(=O)[C@H](Cc2ccncc2)NC(=O)[C@H](Cc2ccc(-c3ccc(C(=O)O)cc3)cc2)NC(=O)[C@H]2[C@@H](Cc3ccncc3)CCN2C(=O)CNC(=O)[C@H](CCN)NC(=O)[C@H](CCC(N)=O)NC(=O)[C@H](Cc2cncnc2)NC1=O [Example 224] (cyclo([Bip(4'-COOH)][4Pal][Phe(4-COOH)]G[Pro(cis-4-F)][Trp(βS-Me,4-F)][Aib]SW[d(αMeS)](Me)[Ala(pyrimidin-5-yl)]Q[Dab]G[X4])) | 0.03 nM
9 | C[C@@H](c1c[nH]c2cccc(F)c12)[C@@H]1NC(=O)[C@@H]2C[C@H](F)CN2C(=O)CNC(=O)[C@H](Cc2ccc(C(=O)O)cc2)NC(=O)[C@H](Cc2ccncc2)NC(=O)[C@H](Cc2ccc(-c3ccc(C(=O)O)cc3)cc2)NC(=O)[C@H]2[C@@H](Cc3ccncc3)CCN2C(=O)CNC(=O)[C@H](CCN)NC(=O)[C@H](CCC(N)=O)NC(=O)[C@H](Cc2cncnc2)NC(=O)[C@@](C)(CC(=O)O)NC(=O)[C@H](Cc2c[nH]c3cccc(Cl)c23)NC(=O)[C@H](CO)NC(=O)C(C)(C)NC1=O [Example 225] (cyclo([Bip(4'-COOH)][4Pal][Phe(4-COOH)]G[Pro(cis-4-F)][Trp(βS-Me,4-F)][Aib]S[Trp(4-Cl)][d(αMeD)][Ala(pyrimidin-5-yl)]Q[Dab]G[X4])) | 0.019 nM
10 | C[C@@H](c1c[nH]c2cccc(F)c12)[C@@H]1NC(=O)[C@@H]2C[C@H](F)CN2C(=O)CNC(=O)[C@H](Cc2ccc(C(=O)O)cc2)NC(=O)[C@H](Cc2ccncc2)NC(=O)[C@H](Cc2ccc(-c3ccc(C(=O)O)cc3)cc2)NC(=O)[C@H]2[C@@H](Cc3ccncc3)CCN2C(=O)CNC(=O)[C@H](CNC(N)=O)NC(=O)[C@H](CCC(N)=O)NC(=O)[C@H](Cc2cncnc2)NC(=O)[C@@](C)(CC(=O)O)NC(=O)[C@H](Cc2c[nH]c3cccc(Cl)c23)NC(=O)[C@H](CO)NC(=O)C(C)(C)NC1=O [Example 226] (cyclo([Bip(4'-COOH)][4Pal][Phe(4-COOH)]G[Pro(cis-4-F)][Trp(βS-Me,4-F)][Aib]S[Trp(4-Cl)][d(αMeD)][Ala(pyrimidin-5-yl)]Q[Dap(CONH2)]G[X4])) | 0.022 nM
